Consider 6 compounds from patent US20260041680A1, “METHODS OF TREATING CANCER WITH LONG-ACTING TOPOISOMERASE I INHIBITOR” (priority 2022, published 2026).

Like-named read-outs stand apart in the source and are kept apart here.

For series [1], the system named is H460 human lung cancer xenograft.
The subject of series [2] is H446 human small cell lung cancer xenograft.
Series [3] relates to Panc-1 human pancreatic cancer xenograft.
The conditions of series [4]: SN-38 formed from CPT-11; evident from high SN-38G/SN-38; cited from earlier work.
Series [5] has as its system HT-29 human colon cancer xenograft. As to the kind of experiment: HT-29 human colon cancer xenograft, antitumor activity and tolerability. It is filed as in vivo, nude rat.
Series [6] deals with HCT116 human colon cancer xenograft.
For series [7], the system named is NCI-N87 human gastric cancer xenograft.
In series [8] the test system is MKN45 human gastric cancer xenograft.
The conditions of series [9]: in vivo, po.
For series [10] the following is noted: pegamotecan; cited from earlier work.
The mark [11] stands for this setting: cisplatin IP 5 mg/kg once a week for 2 weeks.
The mark [12] stands for this setting: PLX038 200 mg/kg, irinotecan 60 mg/kg, IV once a week for 2 weeks.
The mark [13] stands for this setting: irinotecan 60 mg/kg IV once a week for 2 weeks.
The mark [14] stands for this setting: PLX038 IV 200 mg/kg once a week for 2 weeks.
The mark [15] stands for this setting: PLX038 200 mg/kg IV once a week for 2 weeks.

For the compound `N.N.[Cl][Pt][Cl]` [cisplatin], the TGI – broadly, how far tumour growth fell short of that in controls – came to 33% in series [1] (setting [11]) and 36.1% in [2] (setting [11]).

In series [3] (gemcitabine IP 50 mg/kg once a week for 2 weeks), `Nc1ccn([C@@H]2O[C@H](CO)[C@@H](O)C2(F)F)c(=O)n1` [gemcitabine] returned a tumour growth inhibition (TGI) of 32.5%.

`CCc1c2c(nc3ccc(OC(=O)N4CCC(N5CCCCC5)CC4)cc13)-c1cc3c(c(=O)n1C2)COC(=O)[C@]3(O)CC` [irinotecan]: the “liver/GI exposure of SN-38” value in series [4] is listed as “high”. Moreover, the “tumor growth inhibition (TGI)” value in series [5] (irinotecan 70/50 mg/kg IV once a week for 2 weeks) stood at 45%. The “loss in body weight” value in series [5] (irinotecan at 70 mg/kg IV (second dose lowered to 50 mg/kg)) came out at 16%. Also, the tolerability entry is reported as “well tolerated” in series [6] (setting [12]), “well-tolerated” in [7] (setting [12]) and “well-tolerated” in series [8] (setting [12]). Also, the TGI in series [6] (setting [13]) was determined as 65.4%; in series [7] (setting [13]), 57.8%; in [8] (setting [13]), 45.6%.

As for `CNCc1ccc(-c2[nH]c3cc(F)cc4c3c2CCNC4=O)cc1` [rucaparib], in series [9], the “rucaparib pre-dose (trough) concentrations at steady state” value was “reasonably consistent with prior data”.

In the case of “O-[7-(tetra-polyethylene glycol ether)-carboxamido-1-cyano-2-heptyl]-N-(10′-methoxy-7′-ethyl-camptothecin)-N-[4′-(diethylcarbamoyl)phenyl)] carbamate [PLX038]”, the tumour growth inhibition (TGI) came out at 30% in [1] (setting [14]); 41.0% in series [2] (setting [14]); 73.1% in series [3] (setting [14]); 46.6% in [6] (setting [15]); 34.4% in series [7] (setting [15]); 59.0% in series [8] (setting [15]). Also, the “tumor growth inhibition (TGI)” value in series [5] (PLX038 50 mg/kg IV once a week for 2 weeks) is given as 13%; in series [5] (PLX038 100 mg/kg IV once a week for 2 weeks), 35%; in series [5] (setting [15]), 61%.

Regarding pegamotecan, the “maximum tolerated dose (MTD)” value in series [10] is reported as 3.24 g/m^2.
